In patent US11845752B2, “Substituted imidazo[1,5-a]pyrazines for the treatment of hepatitis B” (ALIGOS THERAPEUTICS, INC., priority 2020, dated 2023) one finds EC50 data, which are given here for 20 molecules.

Usually EC50 stands for the midpoint of the concentration-response curve.

For the first assay, the system named is HBV. Description: HBV-DNA antiviral assay using HepG2.117 cells (intracellular HBV DNA by qPCR). Format: cell-based, HBV genotype D. Conditions: HBV DNA inhibition, 3 days incubation, listed as 4h. Here is the method:
The following assay procedure describes the HBV antiviral assay, using HepG2.117 cells, which carry a stably integrated genotype D HBV genome under the control of a Tet-off promoter, and intracellular HBV DNA quantification as endpoint. Cell viability is assessed in parallel by measuring the intracellular ATP content using ATPlite (Perkin Elmer).
On day 0, HepG2.117 cells (which are maintained in routine cell culture with doxycycline present in the medium at a final concentration of 1 μg/mL) were seeded in 96-well plates (white with clear bottom) at a density of 2.0×10^4 cells/well (0.1 mL/well) in medium without doxycycline to induce pgRNA transcription and subsequent formation of HBV particles. The cells were incubated at 37° C. and 5% CO2.
On day 1, medium was removed from each well, the test articles were diluted in culture medium without doxcycyline and 100 μL was added to cell culture wells (9 concentrations, 4-fold dilution). For each plate, 6 untreated (merely DMSO) wells were included. The final concentration of DMSO in the culture medium was 2%. Each plate was prepared in duplicate (one for HBV DNA extraction, one for ATPlite measurement). The cells were incubated at 37° C. and 5% CO2 for 3 days.
On day 4, cell viability was assessed using ATPlite and cell lysates were prepared for HBV DNA extraction and subsequent quantification by qPCR.
Medium was removed from each well and 100 μL of 0.33% NP-40 in H2O was added to each well. Plates were sealed, incubated at 4° C. for 5 mins, vortexed extensively and centrifuged briefly. Next, 35 μL of lysate was added to 65 μL QuickExtract DNA Extraction Solution (Epicentre) in a PCR plate for each well. PCR plate was incubated at 65° C. for 6 mins, 98° C. for 2 mins and finally cooled to 4° C. HBV DNA was then quantified by qPCR with HBV-specific primers and probes as specified in Table 1 using the Bio-Rad SSOAdvanced Universal Probes Supermix on a CFX96 machine (Bio-Rad). The PCR cycle program consisted of 95° C. for 3 mins, followed by 40 cycles at 95° C. for 10 sec and 60° C. for 30 sec.
A DNA standard was prepared by dilution of an IDT gBlock corresponding to the amplicon with concentrations ranging from 10^2 to 10^8 copies/input (i.e. per 4 μL) and used to generate a standard curve by plotting Cq values vs. HBV DNA standard concentration. The quantity of HBV DNA in each sample was determined by interpolating from the standard curve.
Cell viability was calculated as follows: % Cell viability=(luminescence value of test sample)/(average luminescence value of 2% DMSO control)×100%. HBV DNA inhibition was calculated as follows: 100−(HBV DNA copy number of test sample)/(average HBV DNA copy number of 2% DMSO control)×100%. No normalization to entecavir was required due to the excellent dynamic window of this assay. The CC50, EC50 and EC90 values were determined by dose-response curves fitted using non-linear regression.
Background: Real-time PCR tracks product formation cycle by cycle.
Regarding `CC1Cn2c(c(C(=O)NCc3ccccc3-c3ccncn3)n(-c3ccc(-n4cccn4)cc3)c2=O)CN1C(=O)c1ccc(Br)c(Cl)c1` (single isomer, unassigned) [Compound 4b, 7-(4-bromo-3-chloro-benzoyl)-6-methyl-3-oxo-2-(4-pyrazol-1-ylphenyl)-N-[(2-pyrimidin-4-ylphenyl)methyl]-6,8-dihydro-5H-imidazo[1,5-a]pyrazine-1-carboxamide], the EC50 is < 50 nM.

The same assay, now with this note: HBV DNA inhibition, 3 days incubation, read-out: EC50.
Turning to `CC1Cn2c(c(C(=O)NCc3ccccc3-n3cc(N)cn3)n(-c3ccc(OC4CC4)cc3)c2=O)CN1C(=O)c1ccc(Br)c(Cl)c1` (single isomer, unassigned) [Compound 19b], the EC50 lay in the range of 50 to 500 nM.

`CC1Cn2c(c(C(=O)NCc3ccccc3-c3cccc(N)n3)n(-c3ccc(OC4CC4)cc3)c2=O)CN1C(=O)c1ccc(Br)c(C(F)(F)F)c1` (single isomer, unassigned) [Compound 27b]: the 50% effective concentration (EC50) was < 50 nM.

`Cc1nnc(-c2ccccc2CNC(=O)c2c3n(c(=O)n2-c2ccc(OC4CC4)cc2)CC(C)N(C(=O)c2ccc(Br)c(Cl)c2)C3)o1` (single isomer, unassigned) [Compound 1b, (6R*)-7-(4-bromo-3-chlorobenzoyl)-2-(4-cyclopropoxyphenyl)-6-methyl-N-(2-(5-methyl-1,3,4-oxadiazol-2-yl)benzyl)-3-oxo-2,3,5,6,7,8-hexahydroimidazo[1,5-a]pyrazine-1-carboxamide]: the EC50 was < 50 nM.

For `CC1Cn2c(c(C(=O)NCc3ccccc3-n3ccc(C(F)(F)F)n3)n(-c3ccc(N4CC5(CN(C)C5)C4)cc3)c2=O)CN1C(=O)c1ccc(Br)c(C(F)(F)F)c1` (single isomer, unassigned) [Compound 110b], the EC50 was 50 to 500 nM.

Consider `CC1Cn2c(c(C(=O)NCc3ccccc3-c3cccnn3)n(-c3ccc(OC4CC4)cc3)c2=O)CN1C(=O)c1ccc(Br)c(Cl)c1` (single isomer, unassigned) [Compound 7b, 7-(4-bromo-3-chloro-benzoyl)-2-[4-(cyclopropoxy)phenyl]-6-methyl-3-oxo-N-[(2-pyridazin-3-ylphenyl)methyl]-6,8-dihydro-5H-imidazo[1,5-a]pyrazine-1-carboxamide], for which the EC50 was < 50 nM.

On to `Cc1cc(C(=O)N2Cc3c(C(=O)NCc4ccccc4-c4ccncn4)n(-c4ccc(OC5CC5)cc4)c(=O)n3CC2C)ccc1Br` (single isomer, unassigned) [Compound 12b, 7-(4-bromo-3-methyl-benzoyl)-2-[4-(cyclopropoxy)phenyl]-6-methyl-3-oxo-N-[(2-pyrimidin-4-ylphenyl)methyl]-6,8-dihydro-5H-imidazo[1,5-a]pyrazine-1-carboxamide], for which the EC50 is < 50 nM.

For `CC1Cn2c(c(C(=O)NCc3ccccc3-c3ccc(N)nn3)n(-c3ccc(OC4CC4)cc3)c2=O)CN1C(=O)c1ccc(Br)c(Cl)c1` (single isomer, unassigned) [Compound 10b, N-[[2-(6-aminopyridazin-3-yl)phenyl]methyl]-7-(4-bromo-3-chloro-benzoyl)-2-[4-(cyclopropoxy)phenyl]-6-methyl-3-oxo-6,8-dihydro-5H-imidazo[1,5-a]pyrazine-1-carboxamide], the concentration for a half-maximal effect (EC50) lay in the range of 50 to 500 nM.

Still in this assay, the particulars now being: Hepatitis B virus, HepG2.117, 72 h, HBV DNA inhibition, 3 days incubation, read-out: EC50.
Take `C[C@@H](O)COc1ccc(-n2c(C(=O)NCc3ccccc3-c3ccccn3)c3n(c2=O)C[C@H](C)N(C(=O)c2ccc(Br)c(C(F)(F)F)c2)C3)cc1` (mixture of isomers) [Compound 60b, (6SR)-7-[4-bromo-3-(trifluoromethyl)benzoyl]-2-[4-[(2R)-2-hydroxypropoxy]phenyl]-6-methyl-3-oxo-N-[[2-(2-pyridyl)phenyl]methyl]-6,8-dihydro-5H-imidazo[1,5-a]pyrazine-1-carboxamide]: the EC50 was < 50 nM.

On to `CC1Cn2c(c(C(=O)NCc3ccccc3-c3ncccn3)n(-c3ccc(OC[C@@H](C)O)cc3)c2=O)CN1C(=O)c1ccc(Br)c(C(F)(F)F)c1` (single isomer, unassigned) [Compound 64a], for which the EC50 was < 50 nM.

Take `CC1Cn2c(c(C(=O)NCc3ccccc3-c3ncccn3)n(-c3ccc(OCC4(O)CC4)cc3)c2=O)CN1C(=O)c1ccc(Br)c(C(F)(F)F)c1` (single isomer, unassigned) [Compound 81a]: the EC50 was in the range of 50 to 500 nM.

As to `Cn1cnc2ccc(-n3c(C(=O)NCc4ccccc4)c4n(c3=O)CCN(C(=O)c3ccc(Br)c(Cl)c3)C4)cc21` [Compound 124, N-benzyl-7-(4-bromo-3-chloro-benzoyl)-2-(3-methylbenzimidazol-5-yl)-3-oxo-6,8-dihydro-5H-imidazo[1,5-a]pyrazine-1-carboxamide], the EC50 is 500 to 5000 nM.

As for `C[C@@H]1Cn2c(c(C(=O)NCc3ccccc3-c3ncccn3)n(-c3ccc(OC[C@H](O)C(F)(F)F)cc3)c2=O)CN1C(=O)c1ccc(Br)c(C(F)(F)F)c1` (mixture of isomers) [Compound 75a, (6RS)-7-[4-bromo-3-(trifluoromethyl)benzoyl]-6-methyl-3-oxo-N-[(2-pyrimidin-2-ylphenyl)methyl]-2-[4-[(2S)-3,3,3-trifluoro-2-hydroxy-propoxy]phenyl]-6,8-dihydro-5H-imidazo[1,5-a]pyrazine-1-carboxamide], the EC50 is < 50 nM.

As for `CC1Cn2c(c(C(=O)NCc3ccccc3-c3ccncn3)n(-c3ccc(OC4CC4)cc3)c2=O)CN1C(=O)c1ccc(Br)c(Cl)c1` (single isomer, unassigned) [Compound 9a, 7-(4-bromo-3-chloro-benzoyl)-2-[4-(cyclopropoxy)phenyl]-6-methyl-3-oxo-N-[(2-pyrimidin-4-ylphenyl)methyl]-6,8-dihydro-5H-imidazo[1,5-a]pyrazine-1-carboxamide], the EC50 lay within 50 to 500 nM.

As to `Cc1cc(C(=O)N2Cc3c(C(=O)NCc4ccccc4-c4ccncn4)n(-c4ccc(OC5CC5)cc4)c(=O)n3CC2C)ccc1Br` (single isomer, unassigned) [Compound 12a, 7-(4-bromo-3-methyl-benzoyl)-2-[4-(cyclopropoxy)phenyl]-6-methyl-3-oxo-N-[(2-pyrimidin-4-ylphenyl)methyl]-6,8-dihydro-5H-imidazo[1,5-a]pyrazine-1-carboxamide], the EC50 lay within 50 to 500 nM.

With `CC1Cn2c(c(C(=O)NCc3ccccc3-c3ncccn3)n(-c3ccc4c(c3)nnn4CC(F)(F)F)c2=O)CN1C(=O)c1ccc(Br)c(C(F)(F)F)c1` (single isomer, unassigned) [Compound 103a], the EC50 was 50 to 500 nM.

For the molecule `CC1Cn2c(c(C(=O)NCc3c(F)cccc3-c3nccc(N)n3)n(-c3ccc(OC4CC4)cc3)c2=O)CN1C(=O)c1ccc(Br)c(C(F)(F)F)c1` (single isomer, unassigned) [Compound 32a], the EC50 is < 50 nM.

Consider `CC1Cn2c(c(C(=O)NCc3ccccc3-c3ccncn3)n(-c3ccc(OC[C@@H](O)C(F)(F)F)cc3)c2=O)CN1C(=O)c1ccc(Br)c(C(F)(F)F)c1` (single isomer, unassigned) [Compound 62a], for which the EC50 is < 50 nM.

Regarding `Cc1nnc(-c2ccccc2CNC(=O)c2c3n(c(=O)n2-c2ccc4oc(C)nc4c2)CC(C)N(C(=O)c2ccc(Br)c(Cl)c2)C3)o1` (single isomer, unassigned) [Compound 53a], the EC50 fell in the range of 50 to 500 nM.

`CC1Cn2c(c(C(=O)NCc3ccccc3-c3ccccn3)n(-c3ccc(OC[C@@H](O)C(F)(F)F)cc3)c2=O)CN1C(=O)c1ccc(Br)c(C(F)(F)F)c1` (single isomer, unassigned) [Compound 68a]: the EC50 was < 50 nM.
